For 11 compounds, IC50 results are on record in patent publication US20040220148A1, “5-Membered ring heterocycles as inhibitors of leucocyte adhesion and as VLA-4 antagonists” (Aventis Pharma Deutschland GmbH, priority 1996, published 2004).

What is called pIC50 is the IC50 on a negative log10 scale, so that one unit is a factor of ten.

pIC50: −log10 of the molar value. Counter-ions that a name gives are not always drawn.

T1 sequence (P13612 34-1032): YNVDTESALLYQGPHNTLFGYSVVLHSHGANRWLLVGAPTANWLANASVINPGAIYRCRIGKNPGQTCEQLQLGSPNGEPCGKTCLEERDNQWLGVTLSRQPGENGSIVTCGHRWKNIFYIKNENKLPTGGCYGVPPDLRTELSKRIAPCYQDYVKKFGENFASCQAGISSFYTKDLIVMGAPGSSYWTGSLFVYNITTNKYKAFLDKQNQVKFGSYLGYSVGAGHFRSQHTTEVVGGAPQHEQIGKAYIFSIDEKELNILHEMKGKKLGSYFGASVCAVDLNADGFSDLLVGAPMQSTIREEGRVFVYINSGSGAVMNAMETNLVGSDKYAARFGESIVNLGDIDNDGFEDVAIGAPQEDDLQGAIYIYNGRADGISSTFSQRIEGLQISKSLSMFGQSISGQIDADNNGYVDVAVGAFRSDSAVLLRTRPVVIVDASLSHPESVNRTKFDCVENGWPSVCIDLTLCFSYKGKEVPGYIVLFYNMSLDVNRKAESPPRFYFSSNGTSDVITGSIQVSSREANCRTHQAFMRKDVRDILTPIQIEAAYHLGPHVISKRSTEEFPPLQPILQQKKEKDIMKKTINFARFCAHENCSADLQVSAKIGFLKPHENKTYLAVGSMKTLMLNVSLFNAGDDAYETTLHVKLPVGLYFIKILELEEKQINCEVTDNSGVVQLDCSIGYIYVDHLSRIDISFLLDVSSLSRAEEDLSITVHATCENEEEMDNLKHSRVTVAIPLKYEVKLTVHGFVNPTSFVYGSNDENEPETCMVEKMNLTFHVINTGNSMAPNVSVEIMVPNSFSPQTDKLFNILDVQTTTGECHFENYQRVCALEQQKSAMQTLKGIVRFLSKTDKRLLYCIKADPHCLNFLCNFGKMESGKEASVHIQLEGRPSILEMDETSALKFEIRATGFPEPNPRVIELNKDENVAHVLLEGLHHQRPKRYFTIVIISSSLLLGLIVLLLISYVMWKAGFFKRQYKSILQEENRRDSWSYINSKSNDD
T1 sequence (P05556 21-798): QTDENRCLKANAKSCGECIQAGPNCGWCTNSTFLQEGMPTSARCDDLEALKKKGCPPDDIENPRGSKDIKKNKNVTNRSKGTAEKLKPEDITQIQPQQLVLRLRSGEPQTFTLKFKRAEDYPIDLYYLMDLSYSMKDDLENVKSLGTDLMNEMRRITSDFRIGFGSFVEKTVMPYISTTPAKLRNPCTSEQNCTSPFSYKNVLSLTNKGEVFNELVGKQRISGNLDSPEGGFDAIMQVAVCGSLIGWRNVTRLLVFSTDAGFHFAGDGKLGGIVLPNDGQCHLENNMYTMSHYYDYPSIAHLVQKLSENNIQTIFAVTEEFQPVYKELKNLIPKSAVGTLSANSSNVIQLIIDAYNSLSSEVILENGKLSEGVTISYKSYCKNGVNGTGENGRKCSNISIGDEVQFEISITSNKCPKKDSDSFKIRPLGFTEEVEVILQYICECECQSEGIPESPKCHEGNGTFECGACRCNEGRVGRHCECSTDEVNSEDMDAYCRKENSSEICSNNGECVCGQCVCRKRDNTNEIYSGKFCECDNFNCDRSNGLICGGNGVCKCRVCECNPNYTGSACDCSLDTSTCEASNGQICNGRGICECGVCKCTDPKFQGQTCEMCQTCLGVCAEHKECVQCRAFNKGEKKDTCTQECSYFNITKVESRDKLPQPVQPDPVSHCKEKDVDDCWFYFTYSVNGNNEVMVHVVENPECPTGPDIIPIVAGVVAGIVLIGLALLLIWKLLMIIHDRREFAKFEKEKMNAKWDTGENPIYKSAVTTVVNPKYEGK

The experiment concerns the target T1, VLA-4 integrins on human U937 cells (interaction between VCAM-1 and VLA-4) (Homo sapiens, UniProt P05556+P13612).
T1 construct: the VLA-4 integrins, are offered in their natural form as surface molecules on human U937 cells; host or cells: U937 cells (VLA-4, endogenous); the partner hVCAM-1(1-3)-IgG came from the supernatant of transfected COS cells (ATCC CRL1651)
Briefly: U937/VCAM-1 cell adhesion test (adhesion of U937 cells to hVCAM-1(1-3)-IgG). The settings on record: concentration leading to 50% inhibition of adhesion. The experiment is classed as cell-based. The text has this:
As a test method for the activity of the compounds of the formula I on the interaction between VCAM-1 and VLA-4, an assay which is specific for this interaction is used. The cellular binding components, i.e. the VLA-4 integrins, are offered in their natural form as surface molecules on human U937 cells (ATCC CRL 1593) which belong to the group of leucocytes. As specific binding components, recombinant soluble fusion proteins prepared by genetic engineering and consisting of the extracytoplasmic domains of human VCAM-1 and the constant region of a human immunoglobulin of the subclass IgG1 are used.
Assay for the Measurement of the Adhesion of U937 Cells (ATCC CRL 1593) to hVCAM-1 (1-3)-IgG
1. Preparation of Human VCAM-1(1-3)-IgG and Human CD4-IgG
A genetic construct for the expression of the extracellular domains of human VCAM-1 was employed, associated with the genetic sequence of the heavy chain of human immunoglobulin IgG1 (hinge, CH2 and CH3 regions), from Dr. Brian Seed, Massachusetts General Hospital, Boston, USA. The soluble fusion protein hVCAM-1(1-3)-IgG contained the three amino-terminal extracellular immunoglobulin-like domains of human VCAM-1 (Damle and Aruffo, Proc. Natl. Acad. Sci. USA 1991, 88, 6403). CD4-IgG (Zettlmeissl et al, DNA and Cell Biology 1990, 9, 347) served as a fusion protein for negative controls. The recombinant proteins were expressed as soluble proteins after DEAE/dextran-mediated DNA-transfection in COS cells (ATCC CRL1651) according to standard procedures (Ausubel et al., Current protocols in molecular biology, John Wiley & Sons, Inc., 1994).
2. Assay for Measurement of the Adhesion of U937 Cells to hVCAM-1(1-3)-IgG
2.1 96-well microtiter test plates (Nunc Maxisorb) were incubated at room temperature for 1 hour with 100 μl/well of a goat-anti-human IgG antibody solution (10 μg/ml in 50 mM tris, pH 9.5). After removing the antibody solution, washing was carried out once with PBS.
2.2 150 μl/well of a blocking buffer (1% BSA in PBS) were incubated on the plates at room temperature for 0.5 hours. After removing the blocking buffer, washing was carried out once with PBS.
2.3 100 μl per well of a cell culture supernatant of transfected COS cells were incubated on the plates at room temperature for 1.5 hours. The COS cells were transfected with a plasmid which codes for the three N-terminal immunoglobulin-like domains of VCAM-1, coupled to the Fc part of human IgG1 (hVCAM-1(1-3)-IgG). The content of hVCAM-1 (1-3)-IgG was about […]. After removing the culture supernatant, washing was carried out once with PBS.
2.4 The plates were incubated at room temperature for 20 minutes with […] of Fc receptor blocking buffer (1 mg/ml of γ-globulin, 100 mM NaCl, 100 μM MgCl2, 100 μM MnCl2, 100 μM CaCl2, 1 mg/ml BSA in 50 mM HEPES, pH 7.5). After removing the Fc receptor blocking buffer, washing was carried out once with PBS.
2.5 20 μl of binding buffer (100 mM NaCl, 100 μM MgCl2, 100 μM MgCl2, 100 μM CaCl2, 1 mg/ml BSA in 50 mM HEPES, pH 7.5), were initially introduced, the substances to be tested were added in 10 μl of binding buffer and the mixture was incubated for 20 minutes. As controls, antibodies against VCAM-1 (BBT, No. BBA6) and against VLA-4
(Immunotech, No. 0764) were used.
2.6 U937 cells were incubated in Fc receptor blocking buffer for 20 minutes and then pipetted in at a concentration of 1×10^6/ml and in an amount of 100 μl per well ([…]).
2.7 The plates were slowly immersed at an angle of 45° in stop buffer (100 mM NaCl, 100 μM MgCl2, 100 μM MnCl2, 100 μM CaCl2 in 25 mM Tris, pH 7.5) and shaken off. The process was repeated.
2.8 50 μl/well of a dye solution (16.7 μg/ml of Hoechst dye 33258, 4% formaldehyde, 0.5% Triton X-100 in PBS) were then incubated on the plates for 15 minutes.
2.9 The plates were shaken off and slowly immersed at an angle of 45° in stop buffer (100 mM NaCl, 100 μM MgCl2, 100 μM MnCl2, 100 μM CaCl2 in 25 mM Tris, pH 7.5). The process was repeated. […]
`CN(C(=O)CN1C(=O)N(Cc2ccc(-c3ccccc3)cc2)C(C)(c2ccc(C(=N)N)cc2)C1=O)[C@@H](CC(=O)O)C(=O)N[C@H](C(=O)O)c1ccccc1` (stereo partly drawn) [Example 18, ((R,S)-4-(4-(Amino-imino-methyl)phenyl)-3-((4-biphenylyl)methyl)-4-methyl-2,5-dioxoimidazolidin-1-yl)acetyl-L-N-methyl-aspartyl-L-phenylglycine]: the pIC50 was 7.05.

In turn, `N=C(N)c1ccc(C2(Cc3ccccc3)C(=O)N(CC(=O)N[C@@H](CC(=O)O)C(=O)N[C@H](C(=O)O)c3ccccc3)C(=O)N2Cc2ccccc2)cc1` (stereo partly drawn) [Example 20, ((R,S)-4-(4-(Amino-imino-methyl)phenyl)-3,4-dibenzyl-2,5-dioxo-imidazolidin-1-yl)acetyl-L-aspartyl-L-phenylglycine] had a pIC50 of 5.70.

The compound `CC1(c2ccc(C(=N)N)cc2)C(=O)N(CC(=O)NC(CC(=O)O)c2ccccc2)C(=O)N1Cc1ccccc1` [Example 33, (R,S)-3-(((R,S)-4-(4-(Amino-imino-methyl)phenyl)-3-benzyl-4-methyl-2,5-dioxoimidazolidin-1-yl)acetylamino)-3-phenylpropionic acid hydrochloride] gave a pIC50 of 4.35.

Compound `CCN1C(=O)N(CC(=O)N[C@@H](CC(=O)O)C(=O)N[C@H](C(=O)O)c2ccccc2)C(=O)[C@@H]1CCCN` [Example 35, ((S)-4-(3-Aminopropyl)-3-ethyl-2,5-dioxoimidazolidin-1-yl)acetyl-L-aspartyl-L-phenylglycine] had a pIC50 of 3.60.

The compound `CCN1C(=O)N(CC(=O)N[C@@H](CC(=O)O)C(=O)N[C@@H](C(=O)O)c2ccccc2)C(=O)[C@@H]1CCCNC(=N)N` [Example 36, ((S)-4-(3-Guanidinopropyl)-3-ethyl-2,5-dioxoimidazolidin-1-yl)acetyl-L-aspartyl-D-phenylglycine] had a pIC50 of 3.60.

`NCCC[C@H]1C(=O)N(CC(=O)N[C@@H](CC(=O)O)C(=O)N[C@H](C(=O)O)c2ccccc2)C(=O)N1Cc1ccccc1` [Example 37, ((S)-4-(3-Aminopropyl)-3-benzyl-2,5-dioxoimidazolidin-1-yl)acetyl-L-aspartyl-L-phenylglycine] gave a pIC50 of 3.70.

In the case of `N=C(N)NCCC[C@H]1C(=O)N(CC(=O)N[C@@H](CC(=O)O)C(=O)N[C@H](C(=O)O)c2ccccc2)C(=O)N1Cc1ccccc1` [Example 38, ((S)-4-(3-Guanidinopropyl)-3-benzyl-2,5-dioxoimidazolidin-1-yl)acetyl-L-aspartyl-L-phenylglycine], the pIC50 is 4.35.

`C[C@]1(c2ccc(C(=N)N)cc2)C(=O)N(CC(=O)N[C@@H](CC(=O)O)C(=O)N[C@H](C(=O)O)c2ccccc2)C(=O)N1Cc1ccc2ccccc2c1` [Example 41, ((S)-4-(4-(Amino-imino-methyl)phenyl)-3-((2-naphthyl)methyl)-4-methyl-2,5-dioxoimidazolidin-1-yl)acetyl-L-aspartyl-L-phenylglycine]: the pIC50 was 6.55.

Consider `CC1(c2ccc(C(=N)N)cc2)C(=O)N(CC(=O)NC[C@H](NC(=O)OCc2ccccc2)C(=O)O)C(=O)N1Cc1ccccc1` (stereo partly drawn) [Example 46, (S)-3-(((R,S)-4-(4-(Amino-imino-methyl)phenyl)-3-benzyl-4-methyl-2,5-dioxoimidazolidin-1-yl)acetylamino)-2-benzyloxycarbonylaminopropionic acid], for which the pIC50 is 5.17.

`COc1ccc(C(CC(=O)O)NC(=O)CN2C(=O)N(Cc3ccccc3)C(C)(c3ccc(C(=N)N)cc3)C2=O)cc1OC` [Example 57, (R,S)-3-(((R,S)-4-(4-(Amino-imino-methyl)phenyl)-3-benzyl-methyl-2,5-dioxoimidazolidin-1-yl)acetylamino)-3-(3,4-dimethoxyphenyl)propionic acid] showed a negative-log IC50 (pIC50) of 4.76.

With `CC1(c2ccc(C(=N)N)cc2)C(=O)N(CC(=O)NC(CC(=O)O)c2ccc3c(c2)OCCO3)C(=O)N1Cc1ccccc1` [Example 58, (R,S)-3-(((R,S)-4-(4(Amino-imino-methyl)phenyl)-3-benzyl-4-methyl-2,5-dioxoimidazolidin-1-yl)acetylamino)-3-(3,4-ethylenedioxyphenyl)propionic acid], the pIC50 is 4.60.
